Laboratory results published in patent publication US8759535B2, “Substituted fused imidazole derivatives, pharmaceutical compositions, and methods of use thereof” (High Point Pharmaceuticals, LLC, priority 2010, dated 2014).
Where a name gives a salt, the structure may show the parent alone.

tested on: HMOX1; assay: HMOX1 Protein Assay (immunostaining of HO-1 in NHLF cells, GE InCell 1000); type: cell-based; conditions: Homo sapiens, fold change above DMSO treated cells, 3 μM compound (asterisk), 16 h
How it was run: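 NHLF cells seeded overnight in FGM-2, then exposed to compound or DMSO vehicle for 16 h, fixed, and immunostained for HO-1 with Hoechst nuclear counterstain; imaged on InCell 1000. Values are fold change over DMSO-treated cells, generally at 5 μM (0.8% DMSO), with asterisked entries at 3 μM.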

Structure (SMILES) | fold induction at 3 µM
C[C@H](NC(=O)c1ccc2c(c1)nc(Nc1nc3ccc(Cl)cc3s1)n2C)C(=O)N(C)C [Example 462, 2-(6-Chloro-benzothiazol-2-ylamino)-1-methyl-1H-benzoimidazole-5-carboxylic acid ((S)-1-dimethylcarbamoyl-ethyl)-amide] | 20
C[C@H](NC(=O)c1ccc2c(c1)nc(Nc1nc3ccc(C(F)(F)F)cc3s1)n2C)C(=O)N(C)C [Example 463, 1-Methyl-2-(6-trifluoromethyl-benzothiazol-2-ylamino)-1H-benzoimidazole-5-carboxylic acid ((S)-1-dimethylcarbamoyl-ethyl)-amide] | 26.7
Cn1c(Nc2nc3ccc(Cl)cc3s2)nc2cc(C(=O)NCCCN3CCOCC3)ccc21 [Example 359, 2-(6-Chloro-benzothiazol-2-ylamino)-1-methyl-1H-benzoimidazole-5-carboxylic acid (3-morpholin-4-yl-propyl)-amide] | 17.4

same assay, conditions: Homo sapiens, fold change above DMSO treated cells, 5 μM compound, 16 h

Structure (SMILES) | fold induction at 5 µM
Cn1c(Nc2nc3ccc(OC(F)(F)F)cc3s2)nc2cc(C(=O)NCC(C)(C)CO)ccc21 [Example 217, 1-Methyl-2-(6-trifluoromethoxy-benzothiazol-2-ylamino)-1H-benzoimidazole-5-carboxylic acid (3-hydroxy-2,2-dimethyl-propyl)-amide] | 20.7
CN(C)CCOCCNC(=O)c1ccc2c(c1)nc(Nc1nc3ccc(Cl)cc3s1)n2C [Example 274, 2-(6-Chloro-benzothiazol-2-ylamino)-1-methyl-1H-benzoimidazole-5-carboxylic acid [2-(2-dimethylamino-ethoxy)-ethyl]-amide] | 65.9
Cn1c(Nc2nc3ccc(OC(F)(F)F)cc3s2)nc2cc(C(=O)NCC(C)(C)O)ccc21 [Example 45, 1-Methyl-2-(6-trifluoromethoxy-benzothiazol-2-ylamino)-1H-benzoimidazole-5-carboxylic acid (2-hydroxy-2-methyl-propyl)-amide] | 12.5
CCOCCNC(=O)c1ccc2c(c1)nc(Nc1nc3ccc(OC(F)(F)F)cc3s1)n2CCOC [Example 169, 1-(2-Methoxy-ethyl)-2-(6-trifluoromethoxy-benzothiazol-2-ylamino)-1H-benzoimidazole-5-carboxylic acid (2-ethoxy-ethyl)-amide] | 24.4
COCCn1c(Nc2nc3ccc(Cl)cc3s2)nc2cc(C(=O)NCC(=O)N3CCC(O)CC3)ccc21 [Example 438, 2-(6-Chloro-benzothiazol-2-ylamino)-1-(2-methoxy-ethyl)-1H-benzoimidazole-5-carboxylic acid [2-(4-hydroxy-piperidin-1-yl)-2-oxo-ethyl]-amide] | 25.9
C[C@@H](O)CNC(=O)c1ccc2c(c1)nc(Nc1nc3ccc(OC(F)(F)F)cc3s1)n2C [Example 51, 1-Methyl-2-(6-trifluoromethoxy-benzothiazol-2-ylamino)-1H-benzoimidazole-5-carboxylic acid ((R)-2-hydroxy-propyl)-amide] | 9.9
Cn1c(Nc2nc3ccc(Cl)cc3s2)nc2cc(C(=O)N[C@@H]3CCNC3)ccc21 [Example 290, 2-(6-Chloro-benzothiazol-2-ylamino)-1-methyl-1H-benzoimidazole-5-carboxylic acid (R)-pyrrolidin-3-ylamide hydrochloride] | 22.5
Cn1c(Nc2nc3ccc(OC(F)(F)F)cc3s2)nc2cc(C(=O)NCC(=O)N3CCCC3)ccc21 [Example 141, 1-Methyl-2-(6-trifluoromethoxy-benzothiazol-2-ylamino)-1H-benzimidazole-5-carboxylic acid (2-oxo-2-pyrrolidin-1-yl-ethyl)-amide] | 23.1
CCNC(=O)c1ccc2c(c1)nc(Nc1nc3ccc(OC(F)(F)F)cc3s1)n2CC(C)C [Example 165, 1-Isobutyl-2-(6-trifluoromethoxy-benzothiazol-2-ylamino)-1H-benzoimidazole-5-carboxylic acid ethylamide] | 17.9
Cn1c(Nc2nc3c(Cl)cccc3s2)nc2cc(C(=O)NCCOCCN)ccc21 [Example 270, 2-(4-Chloro-benzothiazol-2-ylamino)-1-methyl-1H benzoimidazole-5-carboxylic acid [2-(2-amino-ethoxy)-ethyl]-amide] | 14.6
Cn1c(Nc2nc3ccc(OC(F)(F)F)cc3s2)nc2cc(C(=O)NCc3nccs3)ccc21 [Example 96, 1-Methyl-2-(6-trifluoromethoxy-benzothiazol-2-ylamino)-1H-benzoimidazole-5-carboxylic acid (thiazol-2-ylmethyl)-amide] | 12
Cn1c(Nc2nc3ccc(OC(F)(F)F)cc3s2)nc2cc(C#N)ccc21 [Example 194, 1-Methyl-2-(6-trifluoromethoxy-benzothiazol-2-ylamino)-1H-benzoimidazole-5-carbonitrile] | 6
Cn1c(Nc2nc3ccc(OC(F)(F)F)cc3s2)nc2cc(C(=O)NCCCCO)ccc21 [Example 219, 1-Methyl-2-(6-trifluoromethoxy-benzothiazol-2-ylamino)-1H-benzoimidazole-5-carboxylic acid (4-hydroxy-butyl)-amide] | 40
